Assay results reported in ChEMBL document CHEMBL1201862, “PubChem BioAssay data set” (2004).
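How tested: cells in 96-well plates exposed to compound for 48 hours at five concentrations. GI50 marks 50% less growth.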 Calls of active or inactive are those of the source. Rule as the data show it: active = GI50 up to about 1.1 µM and inactive = higher.

Legend:
Assay in all cases: inhibition of tumour cell growth, NCI panel, 48 h
786-0 = test system: 786-0
A498 = test system: A498
ACHN = test system: ACHN
COLO 205 = test system: COLO 205
HL-60 = test system: HL-60
HOP-92 = test system: HOP-92
IGROV-1 = test system: IGROV-1
LOX IMVI = test system: LOX IMVI
M14 = test system: M14
MOLT-4 = test system: MOLT-4
Malme-3M = test system: Malme-3M
NCI-H522 = test system: NCI-H522
SF-268 = test system: SF-268
SNB-75 = test system: SNB-75
UO-31 = test system: UO-31
NCI-H226 = test system: NCI-H226
SW-620 = test system: SW-620

Measured: GI50

O=C(O)[C@@H](NS(=O)(=O)c1ccc2ccccc2c1)c1ccccc1
inactive: 786-0 > 100 µM | A498 > 100 µM | ACHN > 100 µM | COLO 205 > 100 µM | HL-60 > 100 µM | HOP-92 > 100 µM | IGROV-1 > 100 µM | LOX IMVI > 100 µM | M14 > 100 µM | MOLT-4 > 100 µM | Malme-3M > 100 µM | NCI-H522 > 100 µM | SF-268 > 100 µM | SNB-75 > 100 µM | UO-31 > 100 µM

CC(C)c1cccc(C(C)C)c1/N=C(/N)C#N
inactive: 786-0 > 43.6 µM | A498 > 100 µM | ACHN > 100 µM | COLO 205 40.6 µM | HL-60 26.7 µM | HOP-92 > 41.5 µM | IGROV-1 > 100 µM | LOX IMVI 25.2 µM | M14 > 100 µM | MOLT-4 > 45.9 µM | Malme-3M > 100 µM | NCI-H226 > 100 µM | NCI-H522 38 µM | SF-268 > 100 µM | SNB-75 > 100 µM | SW-620 22.1 µM | UO-31 > 100 µM

NCCCOCC(=O)O
inactive: 786-0 > 100 µM | ACHN > 100 µM | COLO 205 > 100 µM | HOP-92 > 100 µM | IGROV-1 > 100 µM | MOLT-4 > 100 µM | Malme-3M > 100 µM | NCI-H226 > 100 µM | SF-268 > 100 µM | SNB-75 > 100 µM | SW-620 > 100 µM | UO-31 > 100 µM

Nc1c(-c2ccc(Cl)cc2Cl)[n+]([O-])c2ccccc2[n+]1[O-]
inactive: 786-0 > 100 µM | A498 > 100 µM | ACHN > 100 µM | COLO 205 > 100 µM | HL-60 > 100 µM | IGROV-1 > 100 µM | LOX IMVI > 100 µM | M14 > 100 µM | MOLT-4 > 100 µM | Malme-3M > 100 µM | NCI-H226 > 100 µM | NCI-H522 37.4 µM | SF-268 > 100 µM | SNB-75 48.2 µM | SW-620 > 100 µM | UO-31 > 100 µM

O=c1oc(=O)c2oc3ccccc3oc1=2
inactive: 786-0 > 100 µM | A498 > 100 µM | ACHN > 100 µM | COLO 205 > 100 µM | HL-60 > 100 µM | HOP-92 > 100 µM | IGROV-1 > 100 µM | LOX IMVI > 100 µM | M14 > 100 µM | MOLT-4 > 100 µM | Malme-3M > 100 µM | NCI-H226 > 100 µM | NCI-H522 > 100 µM | SF-268 > 100 µM | SNB-75 > 100 µM | SW-620 > 100 µM | UO-31 > 100 µM

COC(=O)C(=O)C(C(=O)C=C(C)C)C(=O)C(=O)Nc1nc2ccc([N+](=O)[O-])cc2s1 (configuration not stated)
inactive: 786-0 > 100 µM | A498 30.5 µM | ACHN 33.3 µM | COLO 205 > 100 µM | HL-60 35.4 µM | HOP-92 27.3 µM | IGROV-1 24.9 µM | LOX IMVI 56.4 µM | M14 52 µM | MOLT-4 36.4 µM | Malme-3M > 100 µM | NCI-H226 46.1 µM | NCI-H522 23.7 µM | SF-268 39 µM | SNB-75 21.4 µM | SW-620 > 100 µM | UO-31 41.5 µM

O=C1/C(=C/c2ccc3c(c2)OCO3)SC2C=Nc3ccccc3N12 (configuration not stated)
inactive: 786-0 > 100 µM | A498 > 100 µM | ACHN > 100 µM | COLO 205 > 100 µM | HOP-92 > 100 µM | IGROV-1 > 100 µM | LOX IMVI > 10 µM | M14 > 100 µM | MOLT-4 > 100 µM | Malme-3M > 100 µM | NCI-H226 > 100 µM | NCI-H522 > 100 µM | SF-268 > 100 µM | SNB-75 28.9 µM | SW-620 > 100 µM | UO-31 > 100 µM

C=CCNC(=O)NCCCC(NC(C)=O)C(=O)NCc1ccccc1 (configuration not stated)
inactive: 786-0 > 100 µM | A498 > 100 µM | ACHN > 100 µM | COLO 205 > 100 µM | HL-60 > 100 µM | HOP-92 > 100 µM | IGROV-1 > 100 µM | LOX IMVI > 100 µM | M14 > 100 µM | MOLT-4 > 100 µM | Malme-3M > 100 µM | NCI-H226 > 100 µM | NCI-H522 > 100 µM | SF-268 > 100 µM | SNB-75 > 100 µM | SW-620 > 100 µM | UO-31 > 100 µM
